Consider 7 compounds from US6693085B2, “Macrolide compound JK” (Higeta Shoyu Co., Ltd., priority 2000, dated 2004).

Converted amounts (≈) assume the structure as drawn. Read-outs that look alike come from different tables or passages of the source. Some results are limits rather than exact numbers.

Experiment [1] concerns Actinomadura pelletieri IFM0903. Put plainly: Sensitivity of the producing strain against antibiotics. It counts as cell-based. The conditions noted are these: Actinomadura pelletieri IFM0903, strain characterisation.
The test system of experiment [2] is gram-positive bacteria. Put plainly: Antimicrobial activity (MIC), summary for gram-positive bacteria. It counts as cell-based. Conditions: range over the gram-positive bacteria of Table 5. As to the method: (§1) Antimicrobial activity of JK-1 was determined by measuring the minimum growth inhibition concentration (MIC) as follows.
(§2) MIC values of JK against a variety of microorganisms were determined on a Mueller-Hinton broth containing 0.2% glucose according to the rule of Japanese Society of Chemotherapy (Kouseibussitsu Taiyo (The Essentials of Antibiotics), 4th ed., University of Tokyo Press, 1992).
(§3) JK-1 was dissolved in methanol, and diluted with the above medium, repeating 2-fold dilution starting from 1 mg/ml. Test microorganisms were added to the above medium to give a test solution of 1×10^6 cells/ml. The JK solution (20 μl) and the test solution (180 μl) were dispensed in a 96 well microplate and incubated at 37° C. After 24 hours, either positive or negative growth was confirmed visually, and the MIC value was caluculated.

The subject of experiment [3] is MRSA. Put plainly: Antimicrobial activity (MIC, broth dilution). It counts as cell-based, Staphylococcus aureus. The conditions noted are these: 24 hours, 37° C. As to the method: as §1, §2, §3
In general terms: In broth dilution the organism is exposed to a series of concentrations in liquid medium.

Experiment [4] relates to gram-negative bacteria and fungi. Put plainly: Antimicrobial activity (MIC), summary for gram-negative bacteria and fungi. Conditions: summary of Table 5. It counts as cell-based. As to the method: as §1, §2, §3
The test system of experiment [5] is Micrococcus luteus. Kind of experiment: Antimicrobial activity (MIC, broth dilution). The experiment is classed as cell-based. The conditions noted are these: 24 hours, 37° C. As to the method:
as §1, §2, §3

The test system of experiment [6] is Staphylococcus aureus 209P. Put plainly: Antimicrobial activity (MIC, broth dilution). It counts as cell-based. Conditions: 24 hours, 37° C. As to the method:
as §1, §2, §3

Experiment [7] relates to Bacillus subtilis PCII89. Kind of experiment: Antimicrobial activity (MIC, broth dilution). It counts as cell-based. The conditions noted are these: Bacillus subtilis PCII89, 24 hours, 37° C. As to the method:
as §1, §2, §3

Experiment [8] concerns Candida albicans. Put plainly: Antimicrobial activity (MIC, broth dilution). The experiment is classed as cell-based. Conditions: 24 hours, 37° C. As to the method:
as §1, §2, §3

For experiment [9], the system named is Gordonia bronchialis. Kind of experiment: Antimicrobial activity (MIC, broth dilution). The experiment is classed as cell-based. Conditions: 24 hours, 37° C. As to the method:
as §1, §2, §3

Experiment [10] has as its system Corynebacterium xerosis. Put plainly: Antimicrobial activity (MIC, broth dilution). It counts as cell-based. Conditions: 24 hours, 37° C. As to the method:
as §1, §2, §3

The subject of experiment [11] is Nocardia asteroides. Kind of experiment: Antimicrobial activity (MIC, broth dilution). The experiment is classed as cell-based. Conditions: 24 hours, 37° C. As to the method: as §1, §2, §3
The test system of experiment [12] is Asperigillus niger. Put plainly: Antimicrobial activity (MIC, broth dilution). The conditions noted are these: 24 hours, 37° C. The experiment is classed as cell-based. As to the method: as §1, §2, §3
In experiment [13] the test system is Escherichia coli NIH JC-2. Put plainly: Antimicrobial activity (MIC, broth dilution). Conditions: Escherichia coli NIH JC-2, 24 hours, 37° C. It counts as cell-based. As to the method: as §1, §2, §3
Experiment [14] has as its system clinically freshly isolated MRSAs. Kind of experiment: Anti-MRSA activity (MIC), 11 clinically freshly isolated MRSA strains. Conditions: for MIC: Staphylococcus aureus, MRSA. The experiment is classed as cell-based, Staphylococcus aureus. As to the method: as §1, §2, §3
Among gram-positive bacteria, there was no difference between MIC values, especially, of Staphylococcus aureus and its multi-drug resistant strain MRSA (Table 5) which have become a clinical problem. In this situation, the antimicrobial activity of JK-1 was compared to that of commercially available 3 drugs in 11 strains of clinically freshly isolated MRSAs.

Take `O=c1[nH]cc(F)c(=O)[nH]1` [Compound 5-FU, 5-FU]: the “Sensitivity against Antibiotics” value in experiment [1] is recorded as “positive”.
Regarding `CCCC1C=CC2C=C(C)C(OC3CC(NC)C(NC(=O)c4c(O)ccc(Cl)c4C)C(C)O3)CC=CC3C(CC)=CC4C(O)C(O)CC(C)C4C3(C)C(=O)C3=C(O)C2(C1)OC3=O` (stereo not shown) [JK-1], in experiment [2], the “MIC values against gram-positive bacteria” value is 0.025 to 0.39 µg/mL. The MIC values was 0.05 µg/mL (≈ 0.057 µM) in experiment [3]; 0.05 µg/mL (≈ 0.057 µM) in experiment [5]; 0.05 µg/mL (≈ 0.057 µM) in [6]; 0.39 µg/mL (≈ 0.444 µM) in experiment [7]; more than 100 µg/mL in experiment [8]; 0.39 µg/mL (≈ 0.444 µM) in experiment [9]. Further, the MIC values in experiment [10] is 0.025 µg/mL (≈ 0.0285 µM); in experiment [11], 0.05 µg/mL (≈ 0.057 µM); in [12], more than 100 µg/mL; in [13], more than 100 µg/mL; in experiment [14] (MRSA strain 3666), 0.2 µg/mL (≈ 0.228 µM); in [14] (MRSA strain 3667) it was 0.2 µg/mL (≈ 0.228 µM). Also, the MIC values came to 0.2 µg/mL (≈ 0.228 µM) in experiment [14] (MRSA strain 3668); 0.2 µg/mL (≈ 0.228 µM) in experiment [14] (MRSA strain 3669); 1.56 µg/mL (≈ 1.78 µM) in experiment [14] (MRSA strain 3670); 0.1 µg/mL (≈ 0.114 µM) in [14] (MRSA strain 3671); 0.78 µg/mL (≈ 0.889 µM) in [14] (MRSA strain S-1); 0.39 µg/mL (≈ 0.444 µM) in [14] (MRSA strain S-2). Besides, the MIC values in [14] (MRSA strain S-3) was found to be 0.39 µg/mL (≈ 0.444 µM); in experiment [14] (MRSA strain S-4), 0.2 µg/mL (≈ 0.228 µM); in [14] (MRSA strain S-5), 0.2 µg/mL (≈ 0.228 µM). Moreover, the “antimicrobial activity against gram-negative bacteria and fungi” value in experiment [4] was “No antimicrobial activity”. Further, in [14] (11 strains of clinically freshly isolated MRSAs), the “activity relative to vancomycin” value is given as “about 6 times”.
In the case of `CCCC1C=CC2C=C(C)C(OC3CC(N)C(NC(=O)c4c(O)ccc(Cl)c4C)C(C)O3)CC=CC3C(CC)=CC4C(O)C(O)CC(C)C4C3(C)C(=O)C3=C(O)C2(C1)OC3=O` (stereo not shown) [JK-2], the MIC values in experiment [14] (MRSA strain 3666) was found to be 0.2 µg/mL (≈ 0.232 µM); in experiment [14] (MRSA strain 3667) it was 0.2 µg/mL (≈ 0.232 µM); in experiment [14] (MRSA strain 3668) it was 0.2 µg/mL (≈ 0.232 µM); in [14] (MRSA strain 3669) it was 0.2 µg/mL (≈ 0.232 µM); in experiment [14] (MRSA strain 3670), 0.78 µg/mL (≈ 0.903 µM); in experiment [14] (MRSA strain 3671), 0.2 µg/mL (≈ 0.232 µM). Moreover, the MIC values in experiment [14] (MRSA strain S-1) was found to be 0.78 µg/mL (≈ 0.903 µM); in experiment [14] (MRSA strain S-2), 0.78 µg/mL (≈ 0.903 µM); in experiment [14] (MRSA strain S-3), 0.39 µg/mL (≈ 0.452 µM); in [14] (MRSA strain S-4), 0.39 µg/mL (≈ 0.452 µM); in experiment [14] (MRSA strain S-5) it was 0.2 µg/mL (≈ 0.232 µM).
Take `NC[C@H]1O[C@H](O[C@H]2[C@H](O)[C@@H](O[C@H]3O[C@H](CO)[C@@H](O)[C@H](N)[C@H]3O)[C@H](N)C[C@@H]2N)[C@H](N)C[C@@H]1O` [Tobramycin]: in experiment [1], the “Sensitivity against Antibiotics” value is reported as “positive”.
As to `CC[C@H]1OC(=O)[C@H](C)[C@@H](O[C@H]2C[C@@](C)(OC)[C@@H](O)[C@H](C)O2)[C@H](C)[C@@H](O[C@@H]2O[C@H](C)C[C@H](N(C)C)[C@H]2O)[C@](C)(O)C[C@@H](C)C(=O)[C@H](C)[C@@H](O)[C@]1(C)O` [erythromycin], the MIC in experiment [14] (MRSA strain 3666, read-out: MIC values) was more than 100 µg/mL; in experiment [14] (MRSA strain 3667, read-out: MIC values), more than 100 µg/mL; in [14] (MRSA strain 3668, read-out: MIC values) it was more than 100 µg/mL; in experiment [14] (MRSA strain 3669, read-out: MIC values) it was more than 100 µg/mL; in [14] (MRSA strain 3670, read-out: MIC values), more than 100 µg/mL; in experiment [14] (MRSA strain 3671, read-out: MIC values), more than 100 µg/mL. For the same compound, the MIC is more than 100 µg/mL in experiment [14] (MRSA strain S-1, read-out: MIC values); 12.5 µg/mL (≈ 17 µM) in experiment [14] (MRSA strain S-2, read-out: MIC values); more than 100 µg/mL in experiment [14] (MRSA strain S-3, read-out: MIC values); more than 100 µg/mL in [14] (MRSA strain S-4, read-out: MIC values); more than 100 µg/mL in experiment [14] (MRSA strain S-5, read-out: MIC values).
Consider `CC1(C)S[C@@H]2[C@H](NC(=O)Cc3ccccc3)C(=O)N2[C@H]1C(=O)O` [penicillin-G], for which the MIC values in experiment [14] (MRSA strain 3666), in experiment [14] (MRSA strain 3667), in experiment [14] (MRSA strain 3668), in experiment [14] (MRSA strain 3669), in experiment [14] (MRSA strain 3670) and in [14] (MRSA strain 3671) was more than 100 µg/mL each time. Also, the MIC values in experiment [14] (MRSA strain S-1), in experiment [14] (MRSA strain S-2), in experiment [14] (MRSA strain S-3), in experiment [14] (MRSA strain S-4) and in experiment [14] (MRSA strain S-5) was more than 100 µg/mL in each case.
For the compound `CN[C@H](CC(C)C)C(=O)N[C@H]1C(=O)N[C@@H](CC(N)=O)C(=O)N[C@H]2C(=O)N[C@H]3C(=O)N[C@H](C(=O)N[C@H](C(=O)O)c4cc(O)cc(O)c4-c4cc3ccc4O)[C@H](O)c3ccc(c(Cl)c3)Oc3cc2cc(c3O[C@@H]2O[C@H](CO)[C@@H](O)[C@H](O)[C@H]2O[C@H]2C[C@](C)(N)[C@H](O)[C@H](C)O2)Oc2ccc(cc2Cl)[C@H]1O` [vancomycin], the MIC worked out at 1.56 µg/mL (≈ 1.08 µM) in experiment [14] (read-out: MIC values, MRSA strain 3666); 3.13 µg/mL (≈ 2.16 µM) in [14] (read-out: MIC values, MRSA strain 3667); 1.56 µg/mL (≈ 1.08 µM) in experiment [14] (read-out: MIC values, MRSA strain 3668); 0.78 µg/mL (≈ 0.538 µM) in [14] (read-out: MIC values, MRSA strain 3669); 0.78 µg/mL (≈ 0.538 µM) in [14] (read-out: MIC values, MRSA strain 3670); 0.78 µg/mL (≈ 0.538 µM) in experiment [14] (read-out: MIC values, MRSA strain 3671). The MIC in experiment [14] (read-out: MIC values, MRSA strain S-1) stood at 6.25 µg/mL (≈ 4.31 µM); in experiment [14] (read-out: MIC values, MRSA strain S-2) it was 3.13 µg/mL (≈ 2.16 µM); in experiment [14] (read-out: MIC values, MRSA strain S-3), 1.56 µg/mL (≈ 1.08 µM); in experiment [14] (read-out: MIC values, MRSA strain S-4) it was 1.56 µg/mL (≈ 1.08 µM); in experiment [14] (read-out: MIC values, MRSA strain S-5) it was 1.56 µg/mL (≈ 1.08 µM).

For orientation: MIC means the lowest concentration found to suppress growth.
